Data as given in US20230085307A1, “PYRIDAZINONE COMPOUND AND HERBICIDE” (NISSAN CHEMICAL CORPORATION, priority 2019, published 2023).

Key:
Settings in all cases: amount of applied herbicide 320 g/ha
[1] = tested on: barnyard grass; assay: Test Example 3: herbicidal effect by foliage application, Wagner pot (Table 18, symbol H); assay type: in vivo, barnyard grass (Echinochloa crus-galli)
Procedure, shortened: (§1)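 Plants were sown in alluvial soil held under 0.1–0.5 cm standing water and grown 14 days in a greenhouse at 25–30 °C. An emulsifiable formulation, water-diluted to the set dose, was then sprayed onto the foliage, and effects were scored three weeks later using previously defined criteria.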

[2] = tested on: Chinese sprangletop; assay: Test Example 3: herbicidal effect by foliage application, Wagner pot (Table 18, symbol D); assay type: in vivo, chinese sprangletop (Leptochloa chinensis)
Procedure, shortened: as §1

[3] = tested on: rice flat sedge; assay: Test Example 3: herbicidal effect by foliage application, Wagner pot (Table 18, symbol E); assay type: in vivo, rice flat sedge (Cyperus iria)
Procedure, shortened: as §1

[4] = tested on: southern crabgrass; assay: Test Example 4: herbicidal effect by soil treatment (Table 19, symbol F); assay type: in vivo, southern crabgrass (Digitaria ciliaris)
Procedure, shortened: (§2)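 Step 1: sow seeds in sterilized diluvial soil, cover ~1.5 cm. Step 2: spray diluted emulsion onto soil surface at predetermined rate. Step 3: greenhouse, 25–30° C, three weeks. Step 4: grade effect on each plant by earlier criteria.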

[5] = tested on: green foxtail; assay: Test Example 4: herbicidal effect by soil treatment (Table 19, symbol G); assay type: in vivo, green foxtail (Setaria viridis)
Procedure, shortened: as §2

[6] = tested on: barnyard grass; assay: Test Example 4: herbicidal effect by soil treatment (Table 19, symbol H); assay type: in vivo, barnyard grass (Echinochloa crus-galli)
Procedure, shortened: as §2

[7] = tested on: wild oat; assay: Test Example 4: herbicidal effect by soil treatment (Table 19, symbol I); assay type: in vivo, wild oat (Avena fatua)
Procedure, shortened: as §2

[8] = tested on: blackgrass; assay: Test Example 4: herbicidal effect by soil treatment (Table 19, symbol J); assay type: in vivo, blackgrass (Alopecurus myosuroides)
Procedure, shortened: as §2

[9] = tested on: Italian ryegrass; assay: Test Example 4: herbicidal effect by soil treatment (Table 19, symbol K); assay type: in vivo, Italian ryegrass (Lolium multiflorum)
Procedure, shortened: as §2

[10] = tested on: windgrass; assay: Test Example 4: herbicidal effect by soil treatment (Table 19, symbol L); assay type: in vivo, windgrass (Apera spica-venti)
Procedure, shortened: as §2

[11] = tested on: velvetleaf; assay: Test Example 4: herbicidal effect by soil treatment (Table 19, symbol M); assay type: in vivo, velvetleaf (Abutilon theophrasti)
Procedure, shortened: as §2

[12] = tested on: redroot pigweed; assay: Test Example 4: herbicidal effect by soil treatment (Table 19, symbol N); assay type: in vivo, redroot pigweed (Amaranthus retroflexus)
Procedure, shortened: as §2

[13] = tested on: lambsquarters; assay: Test Example 4: herbicidal effect by soil treatment (Table 19, symbol O); assay type: in vivo, lambsquarters (Chenopodium album)
Procedure, shortened: as §2

[14] = tested on: chickweed; assay: Test Example 4: herbicidal effect by soil treatment (Table 19, symbol P); assay type: in vivo, common chickweed (Stellaria media)
Procedure, shortened: as §2

[15] = tested on: persian speedwell; assay: Test Example 4: herbicidal effect by soil treatment (Table 19, symbol R); assay type: in vivo, Persian speedwell (Veronica persica)
Source text: [Test Example 4] Herbicidal Effect Test by Soil Treatment
Sterilized diluvial soil was placed in a plastic box having a length of 21 cm, a width of 13 cm, and a depth of 7 cm. The seeds of each of southern crabgrass, green foxtail, barnyard grass, wild oat, blackgrass, Italian ryegrass, windgrass, velvetleaf, redroot pigweed, lambsquarters, chickweed, false cleavers, persian speedwell, corn, soybean, rice, wheat, beet, and rapeseed were sowed in a spot-like manner and covered with the soil having a thickness of about 1.5 cm. Subsequently, the emulsion agent of the compound of the present invention prepared according to Formulation Example 2 was diluted with water so as to achieve a predetermined herbicide amount, and the diluted emulsion agent was uniformly applied to the surface of the soil with a small-sized spray. The plastic box was placed in a greenhouse at 25° C. to 30° C. for growth of the plants. Three weeks after the herbicide application, the effect of the herbicide on each plant was evaluated according to the criteria of Test Example 1.

SMILES | herbicidal effect on H: barnyard grass [1] | herbicidal effect on D: Chinese sprangletop [2] | herbicidal effect on E: rice flat sedge [3] | herbicidal effect, F: southern crabgrass [4] | herbicidal effect, G: green foxtail [5] | herbicidal effect, H: barnyard grass [6] | herbicidal effect, I: wild oat [7] | herbicidal effect, J: blackgrass [8] | herbicidal effect, K: Italian ryegrass [9] | herbicidal effect, L: windgrass [10] | herbicidal effect, M: velvetleaf [11] | herbicidal effect, N: redroot pigweed [12] | herbicidal effect, O: lambsquarters [13] | herbicidal effect, P: chickweed [14] | herbicidal effect, R: persian speedwell [15]
COc1cc(Cl)ccc1-c1sc2ccc(F)cc2c1-c1c(O)c(C)nn(C)c1=O [2-368] | 4 (Herbicidal rate of 70% or more and less than 90%) | 3 (Herbicidal rate of 40% or more and less than 70%) | 3 (Herbicidal rate of 40% or more and less than 70%) | 0 (Herbicidal rate of 5% or less (almost no effect)) | 0 (Herbicidal rate of 5% or less (almost no effect)) | 0 (Herbicidal rate of 5% or less (almost no effect)) | 0 (Herbicidal rate of 5% or less (almost no effect)) | 0 (Herbicidal rate of 5% or less (almost no effect)) | 0 (Herbicidal rate of 5% or less (almost no effect)) | 4 (Herbicidal rate of 70% or more and less than 90%) | 0 (Herbicidal rate of 5% or less (almost no effect)) | 2 (Herbicidal rate of 20% or more and less than 40%) | 3 (Herbicidal rate of 40% or more and less than 70%) | 0 (Herbicidal rate of 5% or less (almost no effect)) | 0 (Herbicidal rate of 5% or less (almost no effect))
Cc1nn(C)c(=O)c(-c2c(-c3cnccc3Cl)sc3ccc(F)cc23)c1O [2-385] | 5 (Herbicidal rate of 90% or more (almost completely withered)) | 5 (Herbicidal rate of 90% or more (almost completely withered)) | 5 (Herbicidal rate of 90% or more (almost completely withered)) | 0 (Herbicidal rate of 5% or less (almost no effect)) | 0 (Herbicidal rate of 5% or less (almost no effect)) | 0 (Herbicidal rate of 5% or less (almost no effect)) | 3 (Herbicidal rate of 40% or more and less than 70%) | 0 (Herbicidal rate of 5% or less (almost no effect)) | 4 (Herbicidal rate of 70% or more and less than 90%) | 1 (Herbicidal rate of 5% or more and less than 20%) | 2 (Herbicidal rate of 20% or more and less than 40%) | 3 (Herbicidal rate of 40% or more and less than 70%) | 4 (Herbicidal rate of 70% or more and less than 90%) | 3 (Herbicidal rate of 40% or more and less than 70%) | 5 (Herbicidal rate of 90% or more (almost completely withered))
